What was measured:
Format in all cases: tissue-based, Heart left ventricle
[1] = Inhibition of Sus scrofa (pig) left ventricle Ca2+-ATPase activity of cardiac myosin assessed as residual activity at 0.8 uM
[2] = Inhibition of Sus scrofa (pig) left ventricle Ca2+-ATPase activity of cardiac myosin assessed as inorganic phosphorus released from protein at 0.05 uM after 30 min; conditions: 0.5 h
[3] = Inhibition of Sus scrofa (pig) left ventricle Ca2+-ATPase activity of cardiac myosin assessed as inorganic phosphorus released from protein at 0.4 uM in presence of Mg2+
[4] = Inhibition of Sus scrofa (pig) left ventricle Ca2+-ATPase activity of cardiac myosin assessed as inorganic phosphorus released from protein at > 0.1 uM after 10 min
[5] = Inhibition of Sus scrofa (pig) left ventricle Ca2+-ATPase activity of cardiac myosin assessed as inorganic phosphorus released from protein at 0.2 uM after 10 min
[6] = Inhibition of Sus scrofa (pig) left ventricle Ca2+-ATPase activity of cardiac myosin assessed as inorganic phosphorus released from protein at 0.05 to 0.4 uM
[7] = Inhibition of Sus scrofa (pig) left ventricle Ca2+-ATPase activity of cardiac myosin assessed as inorganic phosphorus released from protein at 0.2 uM after 1 hr
[8] = Inhibition of Sus scrofa (pig) left ventricle Ca2+-ATPase activity of cardiac myosin assessed as inorganic phosphorus released from protein at 0.2 to 1 uM; conditions: TDE = time-dependent effect

With `COc1cccc2c1C(=O)c1c(O)c3c(c(O)c1C2=O)C[C@@](O)(C(C)=O)C[C@@H]3O[C@H]1C[C@H](N)[C@H](O)[C@H](C)O1` [DAUNORUBICIN] the Activity [1] was 0.12 U, the “inhibition (INH)” value [2] was “Active” and the “inhibition (INH)” value [3] was “Not Active”. For the same compound, the “inhibition (INH)” value [4] was “Active”, the “inhibition (INH)” value [5] was “Active” and the “inhibition (INH)” value [6] was “Active”. For the same compound, the “inhibition (INH)” value [7] was “Active” and the “inhibition (INH)” value [8] was “tde”.
